Assay results: publication PMC6709783, “Structural Basis for Allosteric Ligand Recognition in the Human CC Chemokine Receptor 7” (Cell, 2019)
One block for each molecule: values may come before it.

Tests used:
human CCR7 = target: T1, human CCR7 (Homo sapiens, UniProt P32248, L145W); assay: Thermofluor stability assay (thermal shift, CPM dye) with purified CCR7-L145W; type: binding; conditions: Figure 4B; for thermo-stabilizing effect on CCR7 (in words): known chemokine receptor ligands tested for selectivity of the pocket
T1 construct: enhanced green fluorescent protein (eGFP) (C); decahistidine-tag (His10) (C); made in house; host or cells: Sf9 insect cells (baculovirus)
T1 sequence (P32248 25-348 L145W): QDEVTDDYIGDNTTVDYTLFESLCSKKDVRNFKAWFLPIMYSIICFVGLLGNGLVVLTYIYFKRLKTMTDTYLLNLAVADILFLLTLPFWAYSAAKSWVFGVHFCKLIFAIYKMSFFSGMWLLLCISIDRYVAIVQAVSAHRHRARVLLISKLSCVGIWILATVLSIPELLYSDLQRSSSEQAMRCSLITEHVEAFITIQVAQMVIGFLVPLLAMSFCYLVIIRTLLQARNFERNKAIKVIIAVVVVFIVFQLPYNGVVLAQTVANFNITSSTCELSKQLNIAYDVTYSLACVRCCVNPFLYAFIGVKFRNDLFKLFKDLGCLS
Procedure: The plate was sealed and incubated for 30 min on ice. A 1:100 (v/v) working solution of the CPM (N-[4-(7-diethylamino-4-methyl-3-coumarinyl)phenyl]maleimide) dye stock (3 mg/mL in DMSO) was prepared and 5.14 μL of this solution were added to each well and mixed thoroughly. Out of each well, 3 × 20 μL were distributed into 0.1 mL Rotor-Gene Q tubes (QIAGEN). […] The gain set was determined at the beginning of the run. The melting temperature (Tm) was calculated from the point of inflection.
All liquid-handling steps were performed using a Bravo automated liquid handling platform and a 96LT head.
Melting temperatures (Tm) in the thermofluor stability assays were calculated and analyzed by automated scripts based on a fit to the Boltzmann equation. Details on significance levels and number of experiments are given in the corresponding figure legends.

CCR7 = target: T2, CCR7 (Homo sapiens, UniProt P32248); assay: Cellular arrestin recruitment assay (PathHunter eXpress CCR7 CHO-K1 β-Arrestin); type: cell-based; conditions: agonist concentration used for challenge
T2 construct: host or cells: CHO-K1 (PathHunter eXpress CCR7 β-Arrestin)
T2 sequence (P32248 25-378): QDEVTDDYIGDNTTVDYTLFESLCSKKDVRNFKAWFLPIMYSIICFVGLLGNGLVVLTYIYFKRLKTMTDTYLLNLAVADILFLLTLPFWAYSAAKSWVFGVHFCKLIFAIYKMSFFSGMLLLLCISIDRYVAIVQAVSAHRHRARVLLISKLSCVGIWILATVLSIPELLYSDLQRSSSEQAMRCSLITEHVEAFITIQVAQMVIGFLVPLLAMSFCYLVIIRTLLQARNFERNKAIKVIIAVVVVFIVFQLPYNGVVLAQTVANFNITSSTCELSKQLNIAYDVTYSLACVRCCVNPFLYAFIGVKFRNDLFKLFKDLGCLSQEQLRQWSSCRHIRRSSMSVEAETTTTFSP
Description: Microplates were read following signal generation with a PerkinElmer Envision™ instrument for chemiluminescent signal detection.

CCR5 receptor = conditions: ref Knepp et al., 2011; cited from earlier work
[1] = target: T3, CCR7 in PathHunter eXpress CCR7 CHO-K1 β-Arrestin cells (human, UniProt P32248 25-378); assay: cell-based or functional assay
T3 sequence (looked up): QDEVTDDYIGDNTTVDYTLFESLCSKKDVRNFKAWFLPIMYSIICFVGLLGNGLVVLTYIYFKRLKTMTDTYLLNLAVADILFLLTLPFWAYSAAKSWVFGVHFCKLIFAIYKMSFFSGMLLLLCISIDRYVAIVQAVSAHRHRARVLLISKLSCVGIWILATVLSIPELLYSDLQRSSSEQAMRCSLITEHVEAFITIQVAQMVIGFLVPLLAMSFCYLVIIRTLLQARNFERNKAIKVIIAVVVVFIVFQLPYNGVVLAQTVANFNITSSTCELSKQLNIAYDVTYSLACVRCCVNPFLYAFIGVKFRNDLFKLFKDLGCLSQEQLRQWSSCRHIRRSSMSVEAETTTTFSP

stabilizing effect on CCR7 (human CCR7; hit from virtual and automated thermofluor screening (50 μM ligand)): 2.4 °C
Molecule: CCOc1ccc(NC(=O)C2CCN(C3=NS(=O)(=O)C(c4ccc(OC)cc4)=C3C)CC2)cc1 [CS-1]

Molecule: CC1(C)CN2C(CSC(=NC3CCCCC3)NC3CCCCC3)=CSC2=N1 [IT1t]
thermo-stabilizing effect on CCR7 (in words) (human CCR7): did not affect CCR7

Molecule: CC(C)Cc1ccc([C@@H](C)C(=O)NS(C)(=O)=O)cc1 [Reparixin]
thermo-stabilizing effect on CCR7 (in words) (human CCR7): Neither did the CXCR2 antagonist Danirixin nor the CXCR1 and CXCR2 antagonist Reparixin stabilize CCR7

EC80 concentration, arrestin recruitment (CCR7): 0.057 µM
Molecule: CCL19: native chemokine agonist of CCR7 (human CCL19)

Molecule: Maraviroc
thermo-stabilizing effect on CCR7 (in words) (human CCR7): did not affect CCR7 | stabilizing effect on CCR5 (CCR5 receptor): up to 18.9 °C

arrestin recruitment in PathHunter eXpress CCR7 CHO-K1 β-Arrestin cells, dose response of CCL19 (EC50) [1]: 0.012 µM
B1: human CCL19 (ligand, UniProt Q99731 22-98, looked up)
chain: GTNDAEDCCLSVTQKPIPGYIVRNFHYLLIKDGCRVPAVVFTTLRGRQLCAPPDQPWVERIIQRLQRTSAKMKRRSS
modifications: radioactive label (2200 Ci/mmole) on the labeled part of the mixture
